“Also recorded” adds a separate entry of the source.
Experiments:
stem cell = assay: MTT cell viability assay; type: cell-based; settings: treated for 5 days, sublethal dose
Protocol: The effect of HL156A, TMZ, and combined HL156A and temozolomide on the survival of cells was determined by 3-(4,5-dimethylthiazol-2-yl)-2,5-diphenyl tetrazolium bromide (MTT) assay. Cells were seeded in 96-well plates and incubated at 37° C. for 24 hours and treated with HL156A, TMZ, and the combination thereof for 5 days. MTT reagent (10 μl/well) was added, incubated at 37° C. for 4 hours and the absorbance was measured at 490 nm. Each experiment was repeated three times and the results were expressed as % viable cells over control.

[1] = test system: AMPK and mTOR pathway of GSC11 and X01 cells; assay: Western blotting of AMPK-mTOR pathway-related proteins; type: cell-based, human
Protocol: (§1) For Western blotting, 20 μg total protein from each sample was treated with Laemmli sample buffer and heated at 100° C. for 5 minutes. This was then loaded into each well and was resolved by 8% SDS-polyacrylamide gel electrophoresis (PAGE) and eleetroblotted onto nitrocellulose membranes (GE Healthcare life-Sciences). Membranes were blocked in 5% non-fat dry milk in TBS-T, and incubated with antibodies for AMPK-mTOR pathway-related proteins, stemness markers, and EMT-related markers overnight at 4° C., and then probed with peroxidase-conjugated goat anti-rabbit IgG (1:2000, santa cruz) for 1 hour at room temperature. The washes were repeated and the membrane was developed with a chemiluminescent agent (ECL; Amersham Life Science, Inc.). Band densities were measured using TINA image software (Raytest, Straubenhardt, Germany).

GSC11 and X01 cells = assay: Neurosphere formation assay; type: cell-based, human; settings: GSC11 and X01, cultured for 3 weeks
Protocol: For Neurosphere formation assay, the GSC11 and X01 cells were cultured in medium consisting of DMEM/F-12 with 2% 1×B27, 20 ng/ml 0.02% bFGF, 20 ng/ml 0.02% EGF, and 1% antibiotic-antimycotic solution (100×, Gibco, Invitrogen Korea, Seoul, South Korea). The cells were cultured in different conditions for 3 weeks. […] Photographs of cells were obtained with a digital camera (DP70 Digital Microscope Camera; Olympus), using DP Controller software (Olympus).

[2] = test system: stemness markers such as nestin, CD133, Sox-2, Notch 1, Notch 2, and Oct3/4 in GSC11 or X01; assay: Western blotting of stemness markers; type: cell-based, human
Protocol: as §1

GSC11 and X01 = assay: Neuro-glial differentiation (neuronal marker expression); type: cell-based, human
G-GSC11 spheroids = assay: 3D collagen I matrix invasion assay; type: cell-based, human
Protocol: The G-GSC11s grown in spheroid were cultured in collagen I matrices using polydimethylsiloxane (PDMS)-based micro-wells (diameter and depth of microwells: […] and 500 μm). The microwells were treated with a 1% poly(ethyleneimine) (Sigma-Aldrich, St. Louis, Mo., USA) solution for 10 minutes followed by 0.1% glutaraldehyde (Sigma-Aldrich, St. Louis, Mo., USA) for 30 minutes and washed with PBS overnight lo make PDMS wells adherent to collagen. The 4 mg/ml collagen I matrices are prepared from high-concentration rat tail collagen I (BD Bioscience, CA, USA) using the recommended manual provided by the manufacturer. Briefly, the amounts of 10× phosphate buffered saline (PBS), 1N NaOH, sterile dH2O, and collagen I were mixed to create gels based on the desired final concentration. The solution was well mixed and kept at 4° C. before use. To encapsulate G-GSC11 spheroid, 10 μl of a collagen I solution (4 mg/ml) were pipetted into the micro-well, single G-GSC11 spheroid was placed onto collagen I matrices from the culture plate, and 10 μl of a collagen I solution (4 mg/ml) was dropped onto G-GSC11 spheroid. The platform was incubated at 37° C. and 5% CO2 for 30 minutes. The cell viability was characterized by staining G-GSC11 spheroid with 8 μM Ethidium homodimer-1 (Invitrogen Korea, Seoul, South Korea) for 30 minutes at 37° C. before implantation in collagen matrix. After fall gelation, a superlayer of culture medium consisting of DMEM/F-12 with 2% 1×B27, 20 ng/ml 0.02% bFGF, 20 ng/ml 0.2% EGF, and 1% antibiotic-antimycotic solution (100× Gibco, Invitrogen Korea, Seoul, South Korea) was then added. To observe drug effects, drugs were mixed with medium considering the final concentration of each drug. […] To quantitate the invasion assay, the maximal area covered by migrating edges of cells was used as a parameter for defining invasiveness (invaded area at certain time/spheroid area at initial time×100). Data was analyzed through image analysis software ImageJ (NIH, Bethesda, Md., USA).

[3] = test system: EMT-related markers such as β-catenin, zeb1, N-cadherin, and snail; assay: Western blotting of EMT-related markers; type: cell-based, human; settings: tumorspheres
Protocol: as §1

GSC11 = assay: 18F-FDG uptake (cellular metabolism); type: cell-based, human; settings: 15 minutes incubation, radioactivity normalized to protein content
Protocol: In order to assess the effect of drugs on the cellular metabolism, ^18F-FDG uptake was examined, GSC11 were plated on 12-well plates with 3×10^5 cells per well for 24 hours. The medium was changed to a glucose-free DMEM medium (Gibco, Invitrogen Korea, Seoul, South Korea) containing approximately 0.5 μCi of ^18F-FDG, followed by incubation for 15 minutes. The cells were washed with phosphate-buffered saline 3 times and 0.1 ml of lysis buffer was added to each well. The lysed cells were then harvested to measure the amount of radioactivity by Wallac 148 Wizard 3 gamma-counter (PerkinElmer Life and, Analytical Science, Shelton, Conn., USA). The radioactivity measured was normalized to protein content.

[4] = test system: GSC11 orthotopic xenograft; assay: Orthotopic xenograft mouse model; type: in vivo, male athymic nude mice; settings: stained tumors
Protocol: Finally, the effect of the drags on the tumors of orthotopic xenograft mice was analyzed, 4- to 8-week-old male athymic nude mice (Central Lab. Animal Inc., Seoul, South Korea) were used for experiments. Mice were housed in micro-isolator cages under sterile conditions and observed for at least 1 week before study initiation to ensure proper health. Lighting, temperature, and humidity were controlled centrally. All experimental procedures were approved by Yonsei University College of Medicine Institutional Animal Care and Use Committee. Mice were anesthetized with a solution of Zoletil® (30 mg/kg; Virbac Korea, Seoul, South Korea) and xylazine (10 mg/kg; Bayer Korea, Seoul, South Korea) delivered intraperitoneally. GSC11 were implanted into the right frontal lobe of nude mice using a guide-screw system within the skull. Mice received 5×10^5 cells via a Hamilton syringe (Dongwoo Science Co., Seoul, South Korea) inserted to a depth of 4.5 mm. Then, 15 mg/kg of HL156A, 66.6 mg/kg of TMZ, and their combination were administrated to mice (n=5 per group). HL156A was given to mice by oral administration every other day until the duration of the experiment and TMZ was administrated intraperitoneally, for 5 days from the day of tumorsphere injection. The body weight of mice was checked every other day. […]

With `N=C(NC(=N)N1CCCC1)Nc1ccc(OC(F)(F)F)cc1` [HL156A, N—(N-(4-(trifluoromethoxy)phenyl)carbamimidoyl)pyrrolidine-1-carboximidamide] the “cell viability (% viable cells over control)” value (stem cell) was “minimal effect”, the “AMPK activation and consequent mTOR inhibition” value [1] was “did not show expected AMPK activation” and the number of neurospheres (GSC11 and X01 cells) was “markedly decreased”. The “expression of stemness markers (CD133, OCT 3/4, Sox-2, Notch 1, Notch 2)” value [2] was “Decreased expression”, the “neuro-glial differentiation (expression of olig2, Tuj1, GFAP)” value (GSC11 and X01) was “did not promote” and the “cell viability during the invasion experiment” value (G-GSC11 spheroids) was “no significant cell death”. For the same molecule, the invasiveness (G-GSC11 spheroids; implanted cells and drugs together (FIG. 3A)) was “decreased invasiveness; also recorded: lesser degree of invasiveness”, the invasiveness (G-GSC11 spheroids; pre-implanted, drug treatment 12 hours after implantation (FIG. 3B)) was “decreased invasiveness” and the “expression of β-catenin, zeb1, and N-cadherin (EMT-related markers)” value [3] was “altered; also recorded: diminished”. The 18F-FDG uptake (GSC11) was “markedly decreased” and the “tumor margin versus control” value [4] was “less irregular margin”.

From patent US9539238B2, “Pharmaceutical composition comprising a biguanide derivative as an active ingredient for preventing or treating glioblastoma” (ImmunoMet Therapeutics, Inc., priority 2015, dated 2017)
